Reference: article PMC7732027 (Bioorganic & medicinal chemistry letters, 2019)

Test system: influenza A virus PR8-GLuc (H1N1) strain
Format: cell-based

Q: For `Cl.O=C(O)C12CC3CC(CC(Nc4nc(-c5c[nH]c6ncc(F)cc56)ncc4F)(C3)C1)C2` [13d], which “decrease of potency versus Pimodivir” value is on record?
A: Its value is 230 times.

Q: `Cl.O=C(O)[C@H]1C2CCC(C3CC32)[C@@H]1Nc1nc(-c2c[nH]c3ncc(F)cc23)ncc1F` (some centres unmarked) [13b] was tested. Which “decrease of potency versus Pimodivir” value did it give?
A: The value was 12 times.
